{"source": "patent US5585259A", "about": "“Ecotin as a factor Xa, XIa, and XIIa inhibitor” (Corvas International, Inc., priority 1993, dated 1996)", "key": {"urokinase": {"target": "urokinase", "assay": "Protease assay, chromogenic substrate", "type": "biochemical", "settings": "30 minutes preincubation, read-out: Inhibition constant", "procedure": "(§1) Protease activity was determined using commercially available chromogenic substrates and purified proteases. The initial rate was determined with a Thermomax (Molecular Devices) microtiterplate reader at 405 nm wavelength at room temperature. The buffer used for all measurements contained 100 mM TRIS, 140 mM NaCl, 0.1% BSA, pH 7.4. […]\n(§2) To determine inhibition constants, the protease was incubated during 90 minutes (factor Xa), 45 minutes (trypsin), or 30 minutes (thrombin, plasmin, factor VIIa-tissue factor, human plasma kallikrein, porcine pancreatic elastase, factor XIa, factor XIIa, activated protein C, recombinant t-PA and urokinase) in 150 μl before the substrate (50 μl) was added. The inhibition constant was determined from a plot of the relative activity versus the inhibitor concentration fitted with the following equation:\n(§3) vi /vo ={([Et ]-[It ]-Ki *)+[([It ]+i\n(§4) *-[Et ])^2 +4Ki *[Et ]]^ 1/2 }/2[Et ]\n(§5) vi and vo are the initial rates measured in presence and in absence of inhibitor, [It ] and [Et ] are the total inhibitor and enzyme concentrations and Ki * is the apparent inhibition constant. It was assumed that under these conditions the apparent inhibition constant is not dependent on the substrate concentration and corresponds to the binding constant of the inhibitor to the active site of the protease in the conditions of the experiment."}, "factor XIa": {"target": "factor XIa", "assay": "Protease assay, chromogenic substrate", "type": "biochemical", "settings": "30 minutes preincubation, read-out: Inhibition constant", "procedure": "as §1, §2, §3, §4, §5"}, "rt-PA": {"target": "rt-PA", "assay": "Protease assay, chromogenic substrate", "type": "biochemical", "settings": "30 minutes preincubation, read-out: Inhibition constant", "procedure": "as §1, §2, §3, §4, §5"}, "factor Xa": {"target": "factor Xa", "assay": "Protease assay, chromogenic substrate", "type": "biochemical", "settings": "90 minutes preincubation, read-out: Inhibition constant", "procedure": "as §1, §2, §3, §4, §5"}, "human plasma kallikrein": {"target": "human plasma kallikrein", "assay": "Protease assay, chromogenic substrate", "type": "biochemical", "settings": "30 minutes preincubation, read-out: Inhibition constant", "procedure": "as §1, §2, §3, §4, §5"}, "plasmin": {"tested_on": "plasmin", "assay": "Protease assay, chromogenic substrate", "type": "biochemical", "procedure": "as §1, §2, §3, §4, §5"}, "[1]": {"tested_on": "factor VIIa-tissue factor complex", "assay": "Protease assay, chromogenic substrate", "type": "biochemical", "settings": "concentrations up to 1 μM", "procedure": "as §1, §2, §3, §4, §5"}, "factor XIIA": {"target": "factor XIIA", "assay": "Protease assay, chromogenic substrate", "type": "biochemical", "settings": "30 minutes preincubation, read-out: Inhibition constant", "procedure": "as §1, §2, §3, §4, §5"}, "activated protein C": {"target": "activated protein C", "assay": "Protease assay, chromogenic substrate", "type": "biochemical", "settings": "30 minutes preincubation, read-out: Inhibition constant", "procedure": "as §1, §2, §3, §4, §5"}, "thrombin": {"target": "thrombin", "assay": "Protease assay, chromogenic substrate", "type": "biochemical", "settings": "30 minutes preincubation, read-out: Inhibition constant", "procedure": "as §1\nTo determine inhibition constants, the protease was incubated during 90 minutes (factor Xa), 45 minutes (trypsin), or 30 minutes (thrombin, plasmin, factor VIIa-tissue factor, human plasma kallikrein, porcine pancreatic elastase, factor XIa, factor XIIa, activated protein C, recombinant t-PA and urokinase) in 150 μl before the substrate (50 μl) was added. The inhibition constant was determined from a plot of the relative activity versus the inhibitor concentration fitted with the following equation: […]\nexcept for thrombin where the total enzyme concentration can be neglected compared to the inhibitor concentration and the equation is reduced to:\nvi /vo =1/(1+[It ]/Ki *).\nvi and vo are the initial rates measured in presence and in absence of inhibitor, [It ] and [Et ] are the total inhibitor and enzyme concentrations and Ki * is the apparent inhibition constant. […]"}, "papain": {"tested_on": "papain", "settings": "cited from earlier work"}, "thermolysin": {"tested_on": "thermolysin", "settings": "cited from earlier work"}, "trypsin": {"tested_on": "trypsin", "settings": "cited from earlier work"}, "[2]": {"tested_on": "three membrane-associated serine proteases", "settings": "cited from earlier work"}, "human serosal urokinase": {"tested_on": "human serosal urokinase", "settings": "cited from earlier work"}, "[3]": {"tested_on": "Staphylococcus aureus V8 protease", "settings": "cited from earlier work"}, "elastase": {"tested_on": "elastase", "settings": "cited from earlier work"}, "[4]": {"tested_on": "occlusive thrombus formation in rat carotid artery", "assay": "Rat model of FeCl3-induced platelet-dependent arterial thrombosis", "type": "in vivo", "settings": "10 μg/kg/min continuous intravenous infusion", "text": "The rat model is a well characterized model of platelet dependent, arterial thrombosis which has been used in the evaluation potential antithrombotic compounds such as direct thrombin inhibitors. Kurz et al., 60 Thromb. Res. 269, 1990. […] In this model a platelet-rich, occlusive thrombus is formed in a segment of the rat carotid artery treated with a fresh solution of FeCl3 absorbed to a piece of filter paper. The FeCl3 is thought to diffuse into the treated segment of artery and causes de-endothelialization resulting in thrombus formation. The effect of a test compound on the incidence of occlusive thrombus formation following the application of the FeCl3 is monitored by ultrasonic flowtometry, and is used as the primary end point. The use of flowtometry is a modification of the original procedure in which thermal detection of clot formation was employed. Kurz et al., supra.\nMale Harlan Sprague Dawley rats (420-450 g) were acclimated at least 72 hours prior to use and fasted for 12 hours prior to surgery with free access to water. The animals were prepared, anesthetized with Nembutal with catheters for blood pressure monitoring, drug and anesthesia delivery being implanted as described above. The left carotid artery was isolated by making a midline cervical incision followed by blunt dissection and spreading techniques to separate a 2 cm segment of the vessel from the carotid sheath. A silk suture was inserted under the proximal and distal ends of the isolated vessel to provide clearance for the placement of an ultrasonic flow probe (Transonic) around the proximal end of the vessel. […]\nFollowing surgery, the animals were randomized in either a control (saline infusion) or treatment group with test compound (Ecotin) with at least 4 animals per group at the indicated dose. […] Blood pressure, blood flow, heart rate, and respiration were monitored for 60 minutes.\nThe incidence of occlusion (defined as the attainment of zero blood flow) was recorded as the primary end point. […] The segment was re-weighed following removal of the clot and the difference recorded as total % clot weight. […]"}, "pancreatic elastase": {"tested_on": "pancreatic elastase", "settings": "cited from earlier work"}, "pepsin": {"tested_on": "pepsin", "settings": "cited from earlier work"}, "[5]": {"tested_on": "chymotrypsin-like (protease I) esterase", "settings": "cited from earlier work"}, "human pulmonary tryptase": {"tested_on": "human pulmonary tryptase", "settings": "cited from earlier work"}, "chymotrypsin": {"target": "chymotrypsin", "assay": "Protease assay", "type": "biochemical", "settings": "read-out: Inhibition constant", "procedure": "Protease activity was determined using commercially available chromogenic substrates and purified proteases. The initial rate was determined with a Thermomax (Molecular Devices) microtiterplate reader at 405 nm wavelength at room temperature. The buffer used for all measurements contained 100 mM TRIS, 140 mM NaCl, 0.1% BSA, pH 7.4.\nas §3, §4, §5"}, "subtilisin": {"tested_on": "subtilisin", "settings": "cited from earlier work"}, "rat mast cell chymase": {"tested_on": "rat mast cell chymase", "settings": "cited from earlier work"}, "[6]": {"tested_on": "eight soluble endoproteases which are isolated from E. coli (Do, Re, Mi, Fa, So, La, Ci, Pi)", "settings": "cited from earlier work"}, "kallikrein": {"tested_on": "kallikrein", "settings": "cited from earlier work"}, "[7]": {"tested_on": "trypsin-like (protease II) esterase", "settings": "cited from earlier work"}}, "data": [{"substance": "Ecotin: endogenous E. coli periplasmic serine protease (trypsin) inhibitor protein; recombinant form from pMa5-CI, molecular mass 16,098 Daltons", "values": [{"measurement": "Ki", "setting": "urokinase", "value": "> 2500", "unit": "nM"}, {"measurement": "Ki", "setting": "factor XIa", "value": "2.5 to 25", "unit": "nM"}, {"measurement": "Ki", "setting": "rt-PA", "value": "> 2500", "unit": "nM"}, {"measurement": "Ki", "setting": "factor Xa", "value": "0.05 to 0.2", "unit": "nM"}, {"measurement": "Ki", "setting": "human plasma kallikrein", "value": 1.4, "unit": "nM"}, {"measurement": "Plasmin inhibition", "setting": "plasmin; 1 μM recombinant Ecotin", "value": 15, "unit": "%"}, {"measurement": "Inhibition constant", "setting": "plasmin; plasmin, 30 minutes preincubation", "value": "inactive"}, {"measurement": "inhibition of factor VIIa-tissue factor complex", "setting": "[1]", "value": "not inhibited"}, {"measurement": "Ki", "setting": "factor XIIA", "value": "< 2.5", "unit": "nM"}, {"measurement": "Ki", "setting": "activated protein C", "value": "> 2500", "unit": "nM"}, {"measurement": "Ki", "setting": "thrombin", "value": 7200, "unit": "nM"}, {"measurement": "inhibition of papain", "setting": "papain", "value": "does not inhibit"}, {"measurement": "inhibition of thermolysin", "setting": "thermolysin", "value": "does not inhibit"}, {"measurement": "inhibition of trypsin", "setting": "trypsin", "value": "able to inhibit"}, {"measurement": "inhibition of three membrane-associated serine proteases", "setting": "[2]", "value": "insensitive to inhibition"}, {"measurement": "inhibition of human serosal urokinase", "setting": "human serosal urokinase", "value": "potent inhibitor"}, {"measurement": "inhibition of Staphylococcus aureus V8 protease", "setting": "[3]", "value": "does not inhibit"}, {"measurement": "inhibition of elastase", "setting": "elastase", "value": "able to inhibit"}, {"measurement": "Time to Occlusion", "setting": "[4]", "value": "20.1 ± 0.9", "unit": "min"}, {"measurement": "Incidence of Occlusion", "setting": "[4]; 60 minute observation", "value": "2/6"}, {"measurement": "Clot Formation (%)", "setting": "[4]; p<0.01 vs Control", "value": "12.73 ± 8.04", "unit": "%"}, {"measurement": "inhibition of pancreatic elastase", "setting": "pancreatic elastase", "value": "potent inhibitor"}, {"measurement": "inhibition of pepsin", "setting": "pepsin", "value": "does not inhibit"}, {"measurement": "inhibition of chymotrypsin-like (protease I) esterase in E. coli", "setting": "[5]", "value": "does not inhibit"}, {"measurement": "inhibition of human pulmonary tryptase", "setting": "human pulmonary tryptase", "value": "does not inhibit"}, {"measurement": "Ki", "setting": "chymotrypsin", "value": "< 2.5", "unit": "nM"}, {"measurement": "inhibition of subtilisin", "setting": "subtilisin", "value": "does not inhibit"}, {"measurement": "inhibition of rat mast cell chymase", "setting": "rat mast cell chymase", "value": "potent inhibitor"}, {"measurement": "inhibition of the eight soluble E. coli endoproteases", "setting": "[6]", "value": "does not inhibit"}, {"measurement": "inhibition of kallikrein", "setting": "kallikrein", "value": "does not inhibit"}, {"measurement": "inhibition of trypsin-like (protease II) esterase in E. coli", "setting": "[7]", "value": "does not inhibit"}]}]}
